Format in all cases: cell-based
The test system of data set [1] is U937 neoplastic cells. Briefly: Cytotoxic activity by flow cytometry with 7-AAD staining, U937. The settings on record: Homo sapiens, U-937, 24 h, read-out: Cytotoxic activity IC50, U937.
In data set [2] the test system is K562 neoplastic cells. Briefly: Cytotoxic activity by flow cytometry with 7-AAD staining, K562. The settings on record: Homo sapiens, K562, 24 h, read-out: Cytotoxic activity IC50, K562.
The test system of data set [3] is Jurkat neoplastic cells. As to the kind of experiment: Cytotoxic activity by flow cytometry with 7-AAD staining, Jurkat. The settings on record: Homo sapiens, 24 h, read-out: Cytotoxic activity IC50, Jurkat.
Data set [4] is described as follows: Cytotoxic activity by flow cytometry with 7-AAD staining, HEK293. The conditions noted are these: human.

The structures appear in SMILES notation.

This passage reports IC50 results from paper PMC9052211 (RSC Advances, 2020).

As for `Cc1n[nH]c(C)c1CSCc1ccccc1` [Compound 4b, 4-[(Benzylsulfanyl)methyl]-3,5-dimethyl-1H-pyrazole], the figures for the IC50 in data set [1], in data set [2] and in data set [3] were 2150 ± 60 nM, 1980 ± 60 nM and 1240 ± 50 nM, respectively. In data set [4], this compound yielded an IC50 at 24 h of 2980 ± 60 nM.
In the same order, the values of `Cc1n[nH]c(C)c1CSc1ccc(O)cc1` [Compound 4d, 4-{[(3,5-Dimethyl-1H-pyrazol-4-yl)methyl]sulfanyl}-phenol] are 2270 ± 20 nM, 2340 ± 10 nM, 1890 ± 20 nM and 3340 ± 80 nM.
Regarding `Cc1n[nH]c(C)c1CSC1CCCCC1` [Compound 4c, 4-[(Cyclohexylsulfanyl)methyl]-3,5-dimethyl-1H-pyrazole], the IC50 turned out to be 1980 ± 70 nM in data set [1], 2160 ± 60 nM in data set [2] and 1490 ± 60 nM in data set [3]. This compound also returned an IC50 at 24 h in data set [4] of 3150 ± 50 nM.
In the same order, the values of `Cc1n[nH]c(C)c1CSc1ccccc1` [Compound 4a, 3,5-Dimethyl-4-[(phenylsulfanyl)methyl]-1H-pyrazole] are 2940 ± 30 nM, 2890 ± 30 nM, 2470 ± 30 nM and 3800 ± 30 nM.
